# Measurements reported in US20210087593A1, “N-[…] ALKALOID COMPOUNDS” (Willow BioSciences Inc., priority 2017, published 2021).
# Legend:
# [1] = tested on: EsNMT; experiment: N-alkylation substrate screen using EsNMT (LC-MS); type: biochemical, Ephedra sinica; parameters: key to N-alkylation of substrate alkaloid compounds, Enzyme EsNMT: −=no detectable quantities of product N-alkylated compound; Trace, +, ++, +++=increasing relative levels of product N-alkylated compound; Trace, +, ++, +++=increasing relative levels of product N-alkylated compound; Trace, +, ++, +++=increasing relative levels of product N-alkylated compound; Trace, +, ++, +++=increasing relative levels of product N-alkylated compound; conditions: for N-alkylation of substrate alkaloid compounds, Enzyme EsNMT: 25 μg protein, 1 mM substrate, 1 mM SAM, 60 mM HEPES pH 8, 16 hours at 37° C., relative level of N-alkylated product by LC-MS; for N-alkylated alkaloid product detected after incubation with EsNMT (SEQ. ID NO: 2): incubated in accordance with Example 1, LC-MS
# Description: The EsNMT coding sequence was amplified from Ephedra sinica cDNA using gene-specific primers containing restriction sites with Q5 HiFi DNA polymerase (NEB). Restriction digests and ligations (NEB) were carried out to generate a pQE plasmid (Qiagen) for heterologous expression of HIS6-tagged recombinant EsNMT. Protein overexpression was carried out at 18° C. in Escherichia coli SG13009 (Qiagen) grown in lysogeny broth (LB) to which 0.5 mM isopropyl β-D-1-thiogalactopyranoside (IPTG) was added.
# (§1) Total soluble protein was extracted from each culture and the recombinant NMTs were purified using TALON cobalt affinity resin (Clontech) followed by desalting and concentration with Amicon Ultra-30 centrifugal filters (EMD Millipore). Protein concentration was determined using the Bradford method, and purity was assessed by SDS-PAGE followed by Coomassie staining.
# (§2) Forty-four nitrogenous molecules were screened as potential substrates for EsNMT using a standardized assay (25 μg protein, 1 mM substrate, 1 mM SAM, 60 mM HEPES pH 8, 16 hours at 37° C.). In addition, a representative subset was screened as potential substrates for GfCNMT, GfTNMT and PsRNMT under identical conditions. For each substrate and enzyme combination, negative control assays were carried out using protein heated to 100° C. (boiled) for 20 minutes. Assays were quenched with 9 volumes of methanol, centrifuged to pellet insoluble debris and the supernatants were stored at −20° C. prior to analysis.
# (§3) Assay supernatants were analyzed by liquid chromatography-mass spectrometry (LC-MS). LC-MS analysis was performed using a 1200 HPLC coupled with a 6410 triple-quadrupole MS (Agilent). Samples (2 μl) were injected onto a Luna […] Phenyl-Hexyl 100 Å HPLC column and analytes were eluted in a gradient of solvent A (0.1% Formic acid, 5% v/v methanol in water) and solvent B (0.1% Formic acid in methanol) at a flow rate of 300 μl per minute. The gradient began at 0% B, reached 35% B by 12 minutes, then increased to 85% B at 14 min and remained at that level until 18 minutes. Subsequently, the mixture returned to 0% B over a period of 3 minutes before a final 6 minute re-equilibration period. Analytes were applied to the mass analyzer using an electrospray ionization probe operating in positive mode with the following condition: capillary voltage, 4000V; fragmentor voltage, 100V, source temperature, 350° C.; nebulizer pressure, 50 PSI; gas flow 10 L/min. Ions were detected in full scan mode where quadrupoles 1 and 2 were set to RF only, whereas the third quadrupole scanned from 100-500 m/z over 525 milliseconds. Substrate acceptance by the enzymes was determined according to the formation of a peak with a 14-m/z increase in mass, corresponding to methylated substrate and a decrease in the substrate peak area, relative to the appropriate boiled control assay.
# (§4) Each of the alkaloid substrates shown in Table 1 were incubated with the following N-alkyltransferases: GfCNMT (SEQ. ID NO: 3), gfTNMT (SEQ. ID NO: 4) and Ps RNMT ([…]) and EsNMT (SEQ. ID NO: 2), as described in Example 1. The presence of N-alkylated alkaloid product was detected as described in Examples 1-20. Legend: ND=Not Determined; −=no detectable quantities of product N-alkylated compound; and Trace, +, ++, +++=increasing relative levels of product N-alkylated compound.
# [2] = tested on: PsRNMT; experiment: N-alkylation substrate screen using PsRNMT (LC-MS); type: biochemical, Papaver somniferum; parameters: key: −=no detectable quantities of product N-alkylated compound; Trace, +, ++, +++=increasing relative levels of product N-alkylated compound; Trace, +, ++, +++=increasing relative levels of product N-alkylated compound; Trace, +, ++, +++=increasing relative levels of product N-alkylated compound; Trace, +, ++, +++=increasing relative levels of product N-alkylated compound; conditions: 25 μg protein, 1 mM substrate, 1 mM SAM, 60 mM HEPES pH 8, 16 hours at 37° C.; relative level of N-alkylated product by LC-MS
# Description: (§5) The GfCNMT, GfTNMT and PsRNMT coding sequences were amplified from Glaucium flavum (GfCNMT and GfTNMT) or Papaver somniferum (PsRNMT) cDNA using gene-specific primers containing attB recombination sites with Q5 HiFi DNA polymerase (NEB). Recombination reactions were carried out using BP and LR Clonase II (Thermo Scientific) to generate individual pDONR221 entry plasmids and, subsequently, individual pHGWA plasmids for heterologous expression of polyhistidine (HIS6)-tagged recombinant GfCNMT, GfTNMT and PsRNMT. Protein overexpression was carried out at 18° C. using E. coli ArcticExpress (Agilent) grown in Studier's autoinduction media.
# as §1, §2, §3, §4
# [3] = tested on: GfCNMT; experiment: N-alkylation substrate screen using GfCNMT (LC-MS); type: biochemical, Glaucium flavum; parameters: key: −=no detectable quantities of product N-alkylated compound; Trace, +, ++, +++=increasing relative levels of product N-alkylated compound; Trace, +, ++, +++=increasing relative levels of product N-alkylated compound; Trace, +, ++, +++=increasing relative levels of product N-alkylated compound; Trace, +, ++, +++=increasing relative levels of product N-alkylated compound; conditions: 25 μg protein, 1 mM substrate, 1 mM SAM, 60 mM HEPES pH 8, 16 hours at 37° C.; relative level of N-alkylated product by LC-MS
# Description: as §5, §1, §2, §3, §4
# [4] = tested on: GfTNMT; experiment: N-alkylation substrate screen using GfTNMT (LC-MS); type: biochemical, Glaucium flavum; parameters: key: −=no detectable quantities of product N-alkylated compound; Trace, +, ++, +++=increasing relative levels of product N-alkylated compound; Trace, +, ++, +++=increasing relative levels of product N-alkylated compound; Trace, +, ++, +++=increasing relative levels of product N-alkylated compound; Trace, +, ++, +++=increasing relative levels of product N-alkylated compound; conditions: 25 μg protein, 1 mM substrate, 1 mM SAM, 60 mM HEPES pH 8, 16 hours at 37° C.; relative level of N-alkylated product by LC-MS
# Description: as §5, §1, §2, §3, §4
Compound,"N-alkylation of substrate alkaloid compounds, Enzyme EsNMT [1]","N-alkylation of substrate alkaloid compounds, Enzyme PsRNMT [2]","N-alkylation of substrate alkaloid compounds, Enzyme GfCNMT [3]","N-alkylation of substrate alkaloid compounds, Enzyme GfTNMT [4]",N-alkylated alkaloid product detected after incubation with EsNMT (SEQ. ID NO: 2) [1]
"CC(N)Cc1ccccc1 (stereo not drawn) [Amphetamine, amphetamine, reference compound]",+,−,Trace,Trace,
"COc1cc2c(cc1O)C(Cc1ccc(O)cc1)NCC2 (stereo not drawn) [Coclaurine, coclaurine]",+,++,+++,+,
"COc1ccc2c3c([nH]c2c1)C(C)=NCC3 [Harmaline, harmaline]",+,−,+,−,
"COc1ccc2c(c1)[nH]c1c(C)nccc12 [Harmine, harmine]",−,−,++,−,No N-alkylated alkaloid product compounds were detected
"NCCc1c[nH]cn1 [Histamine, histamine]",−,−,−,−,No N-alkylated alkaloid product compounds were detected
"COc1cc(CCN)cc(OC)c1OC [Mescaline, mescaline]",+,−,−,−,
"NC(=O)c1cccnc1 [Nicotinamide, nicotinamide]",−,−,−,−,No N-alkylated alkaloid product compounds were detected
"CC(N)C(O)c1ccccc1 (stereo not drawn) [Norephedrine, norephedrine]",+,−,−,−,
"COc1ccc2c(c1OC)C(=O)O[C@@H]2[C@H]1c2c(cc3c(c2OC)OCO3)CCN1C [Noscapine, noscapine, reference compound]",−,++,Trace,+++,No N-alkylated alkaloid product compounds were detected
"COc1ccc(C[C@H]2c3cc(O)c(OC)cc3CCN2C)cc1O [S-Reticuline, reticuline]",+,+++,+,++,
"c1cc2c(c3c1C[C@H]1c4cc5c(cc4CCN1C3)OCO5)OCO2 [Stylopine, stylopine]",+,+++,+,+,
"COc1cc2c(cc1OC)CNCC2 [THQ2, 6,7-dimethoxy-1,2,3,4-tetrahydroisoquinoline]",+++,+,+++,+,
"NCCc1c[nH]c2ccccc12 [Tryptamine, tryptamine]",+++,Trace,Trace,Trace,
"NCCc1ccc(O)cc1 [Tyramine, tyramine]",+,−,+,−,
